The values below come from patent US5516790A, “Synthesis and application of alkyl-substituted dibenzofurans as antitumorigenic agents” (Texas A&M University System Technology Licensing Office, priority 1994, dated 1996).

The subject of experiment [1] is female rat uterus. Nature of the experiment: Antiestrogenic effect on uterine wet weight, immature female Sprague-Dawley rats (Example 8). Type of experiment: in vivo.
In experiment [2] the test system is progesterone receptor (PR). Nature of the experiment: Uterine progesterone receptor levels, hydroxyapatite assay (Example 8). Type of experiment: in vivo, female Sprague-Dawley rats. Here is the method:
(§1) The animals were terminated by cervical dislocation. Livers were perfused with ice-cold TEDG buffer (10 mM Tris-HCl, 1.5 mM EDTA-4Na, 1 mM dithiothreitol, 10% glycerol (v/v), pH 7.4). Following perfusion in situ, livers were removed, weighed, and homogenized in ice-cold TEDG buffer. Uteri were also removed, weighed, and homogenized in ice-cold buffer. The homogenates were then centrifuged at 800×g ([…]) for 15 minutes and the nuclear pellets were stored at -80° C. The supernatants were further centrifuged at 180,000× g for 1.5 hours. The cytosolic supernatant was also stored at -80° C. Estrogen and progesterone receptor levels were determined within 7 days.
(§2) Estrogen (ER) and progesterone (PR) receptor levels were determined by the hydroxyapatite assay as described by Clark et al. (J. Steroid Biochem. 16:323-328, 1982) and incorporated herein by reference. […] Following the incubations, samples were counted and specific binding was calculated by subtraction of nonspecific from total binding. Assuming one steroid molecule binds to one estrogen/progesterone receptor, the number of moles of receptor can be calculated given the specific activity of the radioligand. The data presented in Tables 1 through 6 are means ± SD using at least four animals per treatment group. Significant differences were determined by analysis of variance.

Experiment [3] has as its system estrogen receptor (ER). Nature of the experiment: Uterine estrogen receptor levels, hydroxyapatite assay (Example 8). Type of experiment: in vivo, female Sprague-Dawley rats. The procedure: A second group of animals was similarly treated with corn oil, TCDD, MCDF, or TCDD plus MCDF, all administered in corn oil at 10 ml/kg and terminated 72 hours later.
as §1, §2

Setting [4] is: Table 3: 50 μmol/kg + E-2 (2 × 10 μg/rat).
Setting [5] is: Table 3: compound alone, 50 μmol/kg (17β-estradiol: 2 × 10 μg/rat).
[6] abbreviates: dose-response, 2 μmol/kg + 17β-estradiol (2 × 10 μg/rat).
Setting [7] is: dose-response, 10 μmol/kg + 17β-estradiol (2 × 10 μg/rat).
Where [8] appears, read: dose-response, 25 μmol/kg + 17β-estradiol (2 × 10 μg/rat).
Where [9] appears, read: dose-response, 50 μmol/kg + 17β-estradiol (2 × 10 μg/rat).
Setting [10] is: 150 μmol/kg + E-2 (2 × 10 μg/rat), run B.
Where [11] appears, read: compound alone, 150 μmol/kg (17β-estradiol: 2 × 10 μg/rat), run B.
[12] abbreviates: Table 2: 50 μmol/kg + E-2 (2 × 10 μg/rat).
Where [13] appears, read: Table 2: compound alone, 50 μmol/kg (17β-estradiol: 2 × 10 μg/rat).
The mark [14] stands for this setting: 150 μmol/kg + E-2 (2 × 10 μg/rat), run A.
The mark [15] stands for this setting: compound alone, 150 μmol/kg (17β-estradiol: 2 × 10 μg/rat), run A.

As for `Cc1cc2c(cc1Cl)oc1c(Cl)c(Cl)c(Cl)cc12` [8-Methyl-2,3,4,7-tetraCDF, 8-Methyl-2,3,4,7-tetrachlorodibenzofuran], the “Uterine Wet Weight” value in experiment [1] (setting [4]) is reported as 0.245 ± 0.006 % body wt; in experiment [1] (setting [5]) it was 0.094 ± 0.006 % body wt; in experiment [1] (setting [6]) it was 0.179 ± 0.009 % body wt; in experiment [1] (setting [7]), 0.201 ± 0.008 % body wt; in experiment [1] (setting [8]) it was 0.181 ± 0.002 % body wt; in experiment [1] (setting [9]) it was 0.172 ± 0.005 % body wt. Also, the “Progesterone Receptor Levels, Cytosolic” value in experiment [2] (setting [4]) is listed as 725 ± 51 fmol/mg protein; in experiment [2] (setting [5]), 616 ± 43 fmol/mg protein; in experiment [2] (setting [6]) it was 2167 ± 152 fmol/mg protein; in experiment [2] (setting [7]), 1670 ± 117 fmol/mg protein; in experiment [2] (setting [8]) it was 1405 ± 98 fmol/mg protein; in experiment [2] (setting [9]) it was 1098 ± 88 fmol/mg protein. Moreover, the “Progesterone Receptor Levels, Nuclear” value in experiment [2] (setting [4]) is recorded as 360 ± 25 fmol/mg protein; in experiment [2] (setting [5]), 161 ± 13 fmol/mg protein; in experiment [2] (setting [6]), 866 ± 52 fmol/mg protein; in experiment [2] (setting [7]) it was 701 ± 35 fmol/mg protein; in experiment [2] (setting [8]) it was 697 ± 56 fmol/mg protein; in experiment [2] (setting [9]) it was 514 ± 41 fmol/mg protein. For the same compound, the “ED40-60 for Inhibition, PRc” value in experiment [2] (cotreatment with 17β-estradiol) was 10 µmol/kg. Besides, the “ED40-60 for Inhibition, PRn” value in experiment [2] (cotreatment with 17β-estradiol) is 10 µmol/kg. For the same compound, the “Estrogen Receptor Levels, Cytosolic” value in experiment [3] (setting [4]) is on record as 107.2 ± 5.4 fmol/mg protein; in experiment [3] (setting [5]), 66.8 ± 3.3 fmol/mg protein; in experiment [3] (setting [6]) it was 183.4 ± 9.2 fmol/mg protein; in experiment [3] (setting [7]), 151.9 ± 9.1 fmol/mg protein; in experiment [3] (setting [8]), 137.4 ± 6.9 fmol/mg protein; in experiment [3] (setting [9]), 114.9 ± 5.8 fmol/mg protein. Moreover, the “Estrogen Receptor Levels, Nuclear” value was found to be 43.7 ± 2.2 fmol/mg protein in experiment [3] (setting [4]); 30.9 ± 1.6 fmol/mg protein in experiment [3] (setting [5]); 83.2 ± 4.2 fmol/mg protein in experiment [3] (setting [6]); 82.8 ± 5.0 fmol/mg protein in experiment [3] (setting [7]); 69.0 ± 4.1 fmol/mg protein in experiment [3] (setting [8]); 69.2 ± 4.2 fmol/mg protein in experiment [3] (setting [9]). Besides, the “ED40-60 for Inhibition, ERc” value in experiment [3] (cotreatment with 17β-estradiol) is 10 µmol/kg. Besides, in experiment [3] (cotreatment with 17β-estradiol), the “ED40-60 for Inhibition, ERn” value stood at 25 µmol/kg.
As for `CCc1cc(Cl)cc2c1oc1cc(Cl)cc(Cl)c12` [6-Ethyl-1,3,8-triCDF], the results for the “Uterine Wet Weight” value in experiment [1] (setting [10]) and in experiment [1] (setting [11]) were 0.226 ± 0.013 % body wt and 0.128 ± 0.007 % body wt, respectively. Besides, the “Progesterone Receptor Levels, Cytosolic” value was 1601 ± 121 fmol/mg protein in experiment [2] (setting [10]) and 688 ± 49 fmol/mg protein in experiment [2] (setting [11]). The “Progesterone Receptor Levels, Nuclear” value in experiment [2] (setting [10]) is reported as 277 ± 19 fmol/mg protein; in experiment [2] (setting [11]), 243 ± 17 fmol/mg protein. In addition, the “Estrogen Receptor Levels, Cytosolic” value in experiment [3] (setting [10]) is 104.3 ± 77.1 fmol/mg protein; in experiment [3] (setting [11]) it was 98.4 ± 5.5 fmol/mg protein. The “Estrogen Receptor Levels, Nuclear” value stood at 34.9 ± 1.8 fmol/mg protein in experiment [3] (setting [10]) and 33.9 ± 1.7 fmol/mg protein in experiment [3] (setting [11]).
On to `Cc1cc2c(cc1Cl)oc1cc(Cl)cc(Cl)c12` [8-Methyl-1,3,7-triCDF, 8-Methyl-1,3,7-trichlorodibenzofuran], for which the “Uterine Wet Weight” value in experiment [1] (setting [12]) worked out at 0.181 ± 0.007 % body wt; in experiment [1] (setting [13]), 0.127 ± 0.019 % body wt. Moreover, the “Progesterone Receptor Levels, Cytosolic” value in experiment [2] (setting [12]) is recorded as 1025 ± 151 fmol/mg protein; in experiment [2] (setting [13]), 503 ± 63 fmol/mg protein. The “Progesterone Receptor Levels, Nuclear” value is 952 ± 113 fmol/mg protein in experiment [2] (setting [12]) and 795 ± 92 fmol/mg protein in experiment [2] (setting [13]). The results for the “Estrogen Receptor Levels, Cytosolic” value in experiment [3] (setting [12]) and in experiment [3] (setting [13]) were 119.0 ± 14.3 fmol/mg protein and 72.8 ± 8.3 fmol/mg protein, respectively. The “Estrogen Receptor Levels, Nuclear” value was 51.1 ± 7.4 fmol/mg protein in experiment [3] (setting [12]) and 26.4 ± 5.1 fmol/mg protein in experiment [3] (setting [13]).
On to `CCCc1cc(Cl)cc2c1oc1cc(Cl)cc(Cl)c12` [6-n-Propyl-1,3,8-triCDF], for which the “Uterine Wet Weight” value is listed as 0.240 ± 0.019 % body wt in experiment [1] (setting [10]) and 0.118 ± 0.008 % body wt in experiment [1] (setting [11]). For the same compound, the “Progesterone Receptor Levels, Cytosolic” value turned out to be 1838 ± 62 fmol/mg protein in experiment [2] (setting [10]) and 740 ± 71 fmol/mg protein in experiment [2] (setting [11]). Further, the “Progesterone Receptor Levels, Nuclear” value in experiment [2] (setting [10]) turned out to be 408 ± 29 fmol/mg protein; in experiment [2] (setting [11]) it was 294 ± 21 fmol/mg protein. For the same compound, the results for the “Estrogen Receptor Levels, Cytosolic” value in experiment [3] (setting [10]) and in experiment [3] (setting [11]) were 169.4 ± 6.0 fmol/mg protein and 86.4 ± 8.1 fmol/mg protein, respectively. The “Estrogen Receptor Levels, Nuclear” value was determined as 33.7 ± 1.7 fmol/mg protein in experiment [3] (setting [10]) and 35.4 ± 1.8 fmol/mg protein in experiment [3] (setting [11]).
As for `Cc1cc2c(cc1Cl)oc1cc(Cl)c(Cl)cc12`, the “Uterine Wet Weight” value in experiment [1] (setting [4]) is recorded as 0.237 ± 0.007 % body wt; in experiment [1] (setting [5]), 0.138 ± 0.026 % body wt. The “Progesterone Receptor Levels, Cytosolic” value in experiment [2] (setting [4]) amounted to 607 ± 36 fmol/mg protein; in experiment [2] (setting [5]), 554 ± 33 fmol/mg protein. In addition, the “Progesterone Receptor Levels, Nuclear” value in experiment [2] (setting [4]) is 204 ± 12 fmol/mg protein; in experiment [2] (setting [5]) it was 177 ± 11 fmol/mg protein. The results for the “Estrogen Receptor Levels, Cytosolic” value in experiment [3] (setting [4]) and in experiment [3] (setting [5]) were 85.7 ± 4.3 fmol/mg protein and 113.9 ± 5.7 fmol/mg protein, respectively. The “Estrogen Receptor Levels, Nuclear” value in experiment [3] (setting [4]) is on record as 25.7 ± 1.3 fmol/mg protein; in experiment [3] (setting [5]), 47.8 ± 2.4 fmol/mg protein.
Take `Cc1cc2oc3cc(Cl)c(Cl)cc3c2cc1Cl` [7-Methyl-2,3,-triCDF, 7-methyl-2,3,8-trichlorodibenzofuran]: the “Uterine Wet Weight” value was 0.255 ± 0.017 % body wt in experiment [1] (setting [4]) and 0.102 ± 0.011 % body wt in experiment [1] (setting [5]). Also, the “Progesterone Receptor Levels, Cytosolic” value in experiment [2] (setting [4]) was determined as 924 ± 74 fmol/mg protein; in experiment [2] (setting [5]), 501 ± 35 fmol/mg protein. The results for the “Progesterone Receptor Levels, Nuclear” value in experiment [2] (setting [4]) and in experiment [2] (setting [5]) were 554 ± 39 fmol/mg protein and 364 ± 26 fmol/mg protein, respectively. For the same compound, the “Estrogen Receptor Levels, Cytosolic” value in experiment [3] (setting [4]) is 94.2 ± 4.71 fmol/mg protein; in experiment [3] (setting [5]), 72.9 ± 3.7 fmol/mg protein. In addition, the “Estrogen Receptor Levels, Nuclear” value is listed as 48.1 ± 2.4 fmol/mg protein in experiment [3] (setting [4]) and 35.2 ± 1.8 fmol/mg protein in experiment [3] (setting [5]).
For the compound `Clc1cc(Cl)c2c(c1)oc1c(Cl)cc(Cl)cc12` [1,3,6,8-tetraCDF], the “Uterine Wet Weight” value in experiment [1] (setting [14]) came to 0.187 ± 0.020 % body wt; in experiment [1] (setting [15]), 0.123 ± 0.004 % body wt. Further, the “Progesterone Receptor Levels, Cytosolic” value is recorded as 798 ± 83 fmol/mg protein in experiment [2] (setting [14]) and 571 ± 49 fmol/mg protein in experiment [2] (setting [15]). For the same compound, the “Progesterone Receptor Levels, Nuclear” value came out at 291 ± 71 fmol/mg protein in experiment [2] (setting [14]) and 199 ± 46 fmol/mg protein in experiment [2] (setting [15]). Also, the entries for the “Estrogen Receptor Levels, Cytosolic” value in experiment [3] (setting [14]) and in experiment [3] (setting [15]) were 75.5 ± 17.3 fmol/mg protein and 55.2 ± 5.6 fmol/mg protein, respectively. Further, the “Estrogen Receptor Levels, Nuclear” value in experiment [3] (setting [14]) is recorded as 16.1 ± 2.3 fmol/mg protein; in experiment [3] (setting [15]), 18.5 ± 3.8 fmol/mg protein.
